target: FAS (Homo sapiens, UniProt P49327); test: FAS assay (Assay #1 residual NADPH detection or Assay #2 CoA detection with CPM dye); format: biochemical; conditions: inhibition of FAS; measured by one of two assays; one experiment or average of multiple experiments
Description: FAS activity was measured through one of the two following assays.
Inhibition of FAS activity can be measured based on the detection of residual NADPH substrate after the FAS assay is quenched. This assay is run as a 10 μL endpoint assay in 384-well format, where the reaction contains 20 μM malonyl-CoA, 2 μM acetyl-CoA, 30 μM NADPH and 40 nM FAS in 50 mM sodium phosphate, pH 7.0. The assay is run by sequentially dispensing 5 μl of a malonyl-CoA solution, then enzyme solution (containing the acetyl-CoA, and NADPH) into a black, low volume assay plate (Greiner 784076) pre-dispensed with 100 nL compound solutions in DMSO. The reaction is incubated at ambient temperature for 60 minutes, then quenched with 5 μL of a developing solution composed of 90 μM resazurin, 0.3 IU/ml diaphorase in 50 mM sodium phosphate, pH 7.0. The developed reaction is read on a Molecular Devices Analyst or Acquest (or equivalent) plate reader using a 530 nm excitation wavelength filter, a 580 nm emission filter, and 561 nm dichroic filter. The test compounds are prepared in neat DMSO at a concentration of 10 mM. For inhibition curves, compounds are diluted using a three fold serial dilution and tested at 11 concentrations (e.g. 25 μM-0.42 nM). Curves are analysed using ActivityBase and XLfit, and results are expressed as pIC50 values.
Inhibition of FAS can also be quantified based on the detection of the CoA products with a thio-reactive coumarin dye. This assay is run as a 10 μL endpoint assay in 384-well format, where the reaction contains 20 μM malonyl-CoA, 20 μM acetyl-CoA, 40 μM NADPH and 2 nM FAS in 50 mM sodium phosphate, pH 7.0, and 0.04% Tween-20. The assay is run by adding 5 μL enzyme solution to a black, low volume assay plate (Greiner 784076) pre-dispensed with 100 nl compound solutions in DMSO. After 30 minutes, 5 μL substrate is added, and the reaction incubated at ambient temperature for an additional 60 minutes. The reaction is then quenched with 10 μL of 6M guanidine-HCl containing 50 μM CPM (7-diethylamino-3-(4′-maleimidylphenyl)-4-methylcoumarin (CPM; thio-reactive dye), and incubated for 30 minutes. The plate is read on an Envision (PerkinElmer) or equivalent plate reader using a 380 nm excitation wavelength filter, and a 486 nm emission filter. Data fitting and compound preparations are done as described above.

FAS, sequence (P49327 whole entry): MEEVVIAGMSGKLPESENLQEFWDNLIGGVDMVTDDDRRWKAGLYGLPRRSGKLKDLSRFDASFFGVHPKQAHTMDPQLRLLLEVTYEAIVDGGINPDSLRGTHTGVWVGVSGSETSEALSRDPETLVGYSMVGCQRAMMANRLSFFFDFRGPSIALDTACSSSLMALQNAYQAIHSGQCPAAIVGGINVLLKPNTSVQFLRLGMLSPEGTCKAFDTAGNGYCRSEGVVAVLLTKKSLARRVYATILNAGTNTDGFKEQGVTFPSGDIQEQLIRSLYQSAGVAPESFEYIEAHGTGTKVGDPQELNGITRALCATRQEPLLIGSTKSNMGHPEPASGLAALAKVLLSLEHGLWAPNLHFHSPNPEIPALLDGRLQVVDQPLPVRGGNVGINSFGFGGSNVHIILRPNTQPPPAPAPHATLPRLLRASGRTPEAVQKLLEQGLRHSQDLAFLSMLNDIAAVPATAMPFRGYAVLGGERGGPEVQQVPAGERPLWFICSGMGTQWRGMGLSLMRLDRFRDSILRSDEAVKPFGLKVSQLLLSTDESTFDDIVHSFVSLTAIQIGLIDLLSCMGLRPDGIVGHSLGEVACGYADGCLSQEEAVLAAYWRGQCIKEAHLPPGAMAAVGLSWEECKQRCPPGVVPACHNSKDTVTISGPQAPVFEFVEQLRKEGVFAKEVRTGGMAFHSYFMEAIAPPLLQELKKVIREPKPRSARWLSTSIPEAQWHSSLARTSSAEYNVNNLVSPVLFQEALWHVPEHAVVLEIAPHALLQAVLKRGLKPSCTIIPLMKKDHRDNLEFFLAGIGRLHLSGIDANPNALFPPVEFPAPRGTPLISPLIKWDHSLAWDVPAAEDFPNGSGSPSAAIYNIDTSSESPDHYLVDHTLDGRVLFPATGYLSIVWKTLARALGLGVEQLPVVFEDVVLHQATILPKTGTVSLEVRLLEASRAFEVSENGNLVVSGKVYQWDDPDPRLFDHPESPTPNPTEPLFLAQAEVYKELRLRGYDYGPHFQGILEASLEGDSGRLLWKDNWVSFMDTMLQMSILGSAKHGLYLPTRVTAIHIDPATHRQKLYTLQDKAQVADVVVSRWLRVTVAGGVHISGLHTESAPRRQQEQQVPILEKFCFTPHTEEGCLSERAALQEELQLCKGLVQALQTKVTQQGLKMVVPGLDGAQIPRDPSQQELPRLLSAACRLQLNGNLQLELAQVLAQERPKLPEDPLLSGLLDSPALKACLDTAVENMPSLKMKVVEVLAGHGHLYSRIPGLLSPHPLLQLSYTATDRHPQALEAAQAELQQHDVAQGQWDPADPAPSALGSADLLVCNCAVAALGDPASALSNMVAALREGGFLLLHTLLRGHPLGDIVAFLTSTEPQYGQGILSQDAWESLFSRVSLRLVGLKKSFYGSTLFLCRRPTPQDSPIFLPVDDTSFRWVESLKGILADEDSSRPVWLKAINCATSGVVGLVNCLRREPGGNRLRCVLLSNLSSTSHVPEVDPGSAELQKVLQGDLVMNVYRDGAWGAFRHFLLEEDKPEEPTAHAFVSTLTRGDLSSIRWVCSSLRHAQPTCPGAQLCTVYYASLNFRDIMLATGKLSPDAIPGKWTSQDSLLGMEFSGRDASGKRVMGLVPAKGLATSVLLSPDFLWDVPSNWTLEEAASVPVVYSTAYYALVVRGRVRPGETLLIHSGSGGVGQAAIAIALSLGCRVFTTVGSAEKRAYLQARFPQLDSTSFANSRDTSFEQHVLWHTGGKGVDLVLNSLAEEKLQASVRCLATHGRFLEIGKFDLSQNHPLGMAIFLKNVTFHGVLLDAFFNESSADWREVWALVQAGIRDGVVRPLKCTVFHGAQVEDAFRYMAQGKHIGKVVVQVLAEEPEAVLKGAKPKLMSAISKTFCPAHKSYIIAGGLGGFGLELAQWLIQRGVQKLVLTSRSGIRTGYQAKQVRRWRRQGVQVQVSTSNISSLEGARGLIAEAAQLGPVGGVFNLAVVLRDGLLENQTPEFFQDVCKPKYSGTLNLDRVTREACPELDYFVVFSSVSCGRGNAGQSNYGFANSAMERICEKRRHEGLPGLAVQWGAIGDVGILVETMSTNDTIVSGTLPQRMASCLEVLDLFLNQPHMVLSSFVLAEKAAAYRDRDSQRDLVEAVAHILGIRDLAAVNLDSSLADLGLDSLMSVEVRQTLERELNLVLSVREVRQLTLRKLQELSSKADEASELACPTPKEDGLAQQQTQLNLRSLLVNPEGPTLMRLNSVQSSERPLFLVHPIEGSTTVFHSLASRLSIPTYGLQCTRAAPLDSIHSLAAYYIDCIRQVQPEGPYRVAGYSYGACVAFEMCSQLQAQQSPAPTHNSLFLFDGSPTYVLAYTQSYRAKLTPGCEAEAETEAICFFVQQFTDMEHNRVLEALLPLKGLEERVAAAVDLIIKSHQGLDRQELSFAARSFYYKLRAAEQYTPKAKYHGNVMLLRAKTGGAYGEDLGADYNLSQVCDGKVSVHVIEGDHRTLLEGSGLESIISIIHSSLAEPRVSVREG

| IC50 | SMILES |
| --- | --- |
| 0.263 µM | O=C(C1CC1)N1CC[C@@H](Cn2c(-c3ccc(-c4ccc(F)cc4)cc3)nn(Cc3ccccc3)c2=O)C1 [Example 42, 4-{[(3R)-1-(cyclopropylcarbonyl)-3-pyrrolidinyl]methyl}-5-(4′-fluoro-4-biphenylyl)-2-(phenylmethyl)-2,4-dihydro-3H-1,2,4-triazol-3-one] |
| 0.072 µM | COc1ccc(-c2ccc(-c3n[nH]c(=S)n3C[C@@H]3CCN(C(=O)C4CC4)C3)cc2)c(Cl)c1 [Example 107, 5-[2′-chloro-4′-(methyloxy)-4-biphenylyl]-4-{[(3R)-1-(cyclopropylcarbonyl)-3-pyrrolidinyl]methyl}-2,4-dihydro-3H-1,2,4-triazole-3-thione] |
| 0.025 µM | O=C(C1CC1)N1CC[C@@H](Cn2c(-c3ccc(-c4ccc5cc[nH]c5c4)c(F)c3)n[nH]c2=O)C1 [Example 4, 4-{[(3R)-1-(cyclopropylcarbonyl)-3-pyrrolidinyl]methyl}-5-[3-fluoro-4-(1H-indol-6-yl)phenyl]-2,4-dihydro-3H-1,2,4-triazol-3-one] |
| 0.04 µM | O=C(C1CC1)N1CC[C@@H](Cn2c(-c3ccc(-c4ccc(F)cc4)cc3Cl)n[nH]c2=O)C1 [Example 20, 5-(3-chloro-4′-fluoro-4-biphenylyl)-4-{[(3R)-1-(cyclopropylcarbonyl)-3-pyrrolidinyl]methyl}-2,4-dihydro-3H-1,2,4-triazol-3-one] |
| 0.04 µM | CN(C)S(=O)(=O)Nc1cccc(-c2ccc(-c3n[nH]c(=O)n3C[C@@H]3CCN(C(=O)C4CC4)C3)cc2)c1 [Example 49, N′-[4′-(4-{[(3R)-1-(cyclopropylcarbonyl)-3-pyrrolidinyl]methyl}-5-oxo-4,5-dihydro-1H-1,2,4-triazol-3-yl)-3-biphenylyl]-N,N-dimethylsulfamide] |
| 0.004 µM | CC1(C(=O)N2CC[C@@H](Cn3c(-c4ccc(-c5ccc6occc6c5)cc4)n[nH]c3=O)C2)CC1 [Example 97, 5-[4-(1-benzofuran-5-yl)phenyl]-4-({(3R)-1-[(1-methylcyclopropyl)carbonyl]-3-pyrrolidinyl}methyl)-2,4-dihydro-3H-1,2,4-triazol-3-one] |
| 2 µM | O=C(C1CC1)N1CC[C@@H](Cn2c(-c3ccc(-c4ccc(F)nc4)cc3)n[nH]c2=O)C1 [Example 58, 4-{[(3R)-1-(cyclopropylcarbonyl)-3-pyrrolidinyl]methyl}-5-[4-(6-fluoro-3-pyridinyl)phenyl]-2,4-dihydro-3H-1,2,4-triazol-3-one] |
| 0.025 µM | CN(C)C(=O)N1CC[C@@H](Cn2c(-c3ccc(-c4ccc5occc5c4)cc3)n[nH]c2=O)C1 [Example 92, (3R)-3-({3-[4-(1-benzofuran-5-yl)phenyl]-5-oxo-1,5-dihydro-4H-1,2,4-triazol-4-yl}methyl)-N,N-dimethyl-1-pyrrolidinecarboxamide] |
| 0.02 µM | O=C(C1CC1)N1CC[C@@H](Cn2c(-c3ccc(-c4cccc5ncccc45)cc3)n[nH]c2=O)C1 [Example 71, 4-{[(3R)-1-(cyclopropylcarbonyl)-3-pyrrolidinyl]methyl}-5-[4-(5-quinolinyl)phenyl]-2,4-dihydro-3H-1,2,4-triazol-3-one] |
| 0.398 µM | O=C(C1CC1)N1CC[C@@H](Cn2c(-c3ccc(-c4cn5ccccc5n4)cc3)n[nH]c2=O)C1 [Example 78, 4-{[(3R)-1-(cyclopropylcarbonyl)-3-pyrrolidinyl]methyl}-5-(4-imidazo[1,2-a]pyridin-2-ylphenyl)-2,4-dihydro-3H-1,2,4-triazol-3-one] |
| 0.016 µM | CC(C)C(=O)N1CC[C@@H](Cn2c(-c3ccc(-c4ccc5occc5c4)cc3)n[nH]c2=O)C1 [Example 91, 5-[4-(1-benzofuran-5-yl)phenyl]-4-{[(3R)-1-(2-methylpropanoyl)-3-pyrrolidinyl]methyl}-2,4-dihydro-3H-1,2,4-triazol-3-one] |
| 0.079 µM | COc1ccc(-c2ccc(-c3nn(C)c(=O)n3C[C@@H]3CCN(C(=O)C4CC4)C3)cc2)c(Cl)c1 [Example 35, 5-[2′-chloro-4′-(methyloxy)-4-biphenylyl]-4-{[(3R)-1-(cyclopropylcarbonyl)-3-pyrrolidinyl]methyl}-2-methyl-2,4-dihydro-3H-1,2,4-triazol-3-one] |
| 0.316 µM | NC(=O)Nc1cccc(-c2ccc(-c3n[nH]c(=O)n3C[C@@H]3CCN(C(=O)C4CC4)C3)cc2)c1 [Example 103, N-[4′-(4-{[(3R)-1-(cyclopropylcarbonyl)-3-pyrrolidinyl]methyl}-5-oxo-4,5-dihydro-1H-1,2,4-triazol-3-yl)-3-biphenylyl]urea] |
| 0.05 µM | O=C(C1CC1)N1CC[C@@H](Cn2c(-c3ccc(-c4ccc(Cl)cc4F)cc3)n[nH]c2=O)C1 [Example 105] |
| 0.079 µM | N#Cc1ccc(-c2ccc(-c3n[nH]c(=O)n3C[C@@H]3CCN(C(=O)C4CC4)C3)cc2)cc1 [Example 66, 4′-(4-{[(3R)-1-(cyclopropylcarbonyl)-3-pyrrolidinyl]methyl}-5-oxo-4,5-dihydro-1H-1,2,4-triazol-3-yl)-4-biphenylcarbonitrile] |
| 0.158 µM | Cn1nc(-c2ccc(-c3ccc4occc4c3)c(F)c2)n(C[C@@H]2CCN(C(=O)C3CC3)C2)c1=O [Example 2, 5-[4-(1-benzofuran-5-yl)-3-fluorophenyl]-4-{[(3R)-1-(cyclopropylcarbonyl)-3-pyrrolidinyl]methyl}-2-methyl-2,4-dihydro-3H-1,2,4-triazol-3-one] |
| 0.1 µM | O=C(C1CC1)N1CC[C@@H](Cn2c(-c3ccc(-c4ccn5ccnc5c4)cc3)n[nH]c2=O)C1 [Example 79, 4-{[(3R)-1-(cyclopropylcarbonyl)-3-pyrrolidinyl]methyl}-5-(4-imidazo[1,2-a]pyridin-7-ylphenyl)-2,4-dihydro-3H-1,2,4-triazol-3-one] |
| 0.004 µM | O=C(C1CC1)N1CC[C@@H](Cn2c(-c3ccc(-c4ccc5cc[nH]c5c4)cc3)n[nH]c2=O)C1 [Example 21, 4-{[(3R)-1-(cyclopropylcarbonyl)-3-pyrrolidinyl]methyl}-5-[4-(1H-indol-6-yl)phenyl]-2,4-dihydro-3H-1,2,4-triazol-3-one] |
| 0.016 µM | O=C(C1CC1)N1CC[C@@H](Cn2c(-c3ccc(-c4ccc(Cl)cc4)cc3F)n[nH]c2=O)C1 [Example 47, 5-(4′-chloro-3-fluoro-4-biphenylyl)-4-{[(3R)-1-(cyclopropylcarbonyl)-3-pyrrolidinyl]methyl}-2,4-dihydro-3H-1,2,4-triazol-3-one] |
